# Reference: US20210057047A1, “IN-SILICO METHOD FOR DESIGNING A (D)-POLYPEPTIDE LIGAND” (THE GOVERNING COUNCIL OF THE UNIVERSITY OF TORONTO, priority 2018, published 2021)
# Square brackets hold non-standard residues; d marks the D form. Peptide text beside a SMILES is read from it.
# Tests used:
# GLP2R = molecular target: T1, GLP2R (Homo sapiens, UniProt O95838); assay: CRE-luciferase reporter assay in HEK293 cells stably expressing GLP2R; format: cell-based
# T1 construct: expressed in transfected cells; host or cells: HEK293
# T1 sequence (O95838 1-553): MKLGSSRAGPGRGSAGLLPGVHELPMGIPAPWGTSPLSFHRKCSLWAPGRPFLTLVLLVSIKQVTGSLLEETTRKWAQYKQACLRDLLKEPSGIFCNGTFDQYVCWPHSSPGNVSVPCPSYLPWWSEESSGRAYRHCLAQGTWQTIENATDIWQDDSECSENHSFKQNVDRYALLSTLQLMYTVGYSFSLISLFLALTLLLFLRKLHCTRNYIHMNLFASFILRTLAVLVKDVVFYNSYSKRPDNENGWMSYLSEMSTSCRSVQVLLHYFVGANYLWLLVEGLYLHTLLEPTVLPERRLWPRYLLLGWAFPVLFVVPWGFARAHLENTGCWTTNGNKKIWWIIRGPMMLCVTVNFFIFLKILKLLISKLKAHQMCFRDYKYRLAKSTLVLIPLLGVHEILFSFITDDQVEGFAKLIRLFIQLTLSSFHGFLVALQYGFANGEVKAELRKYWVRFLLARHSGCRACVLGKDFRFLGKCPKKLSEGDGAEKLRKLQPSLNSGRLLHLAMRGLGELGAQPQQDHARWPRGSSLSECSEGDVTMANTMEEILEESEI
# Method: This activates protein kinase A (PKA) to phosphorylate and activate cAMP response element-binding protein (CREB). […] All of the (L)-GLP-2 is degraded in about 1 hr, while more than 90% of the (D)-analog is still detectable at 6 hours.
# FIG. 14 is a series of charts and experiments showing the activity and protease degradation of (L)- and (D)-GLP2 polypeptides. (A) HEK293 cells stably expressing GLP2R and CRE-luciferase were stimulated with different concentrations of (L)- and (D)-GLP2 peptides. Luciferase activity was measured. The experiments were performed in triplicate. (B) Sample gel images of (L) and (D)-GLP-2 peptides treated with Proteinase K (ProtK) over 5 hours. Gels were stained with Coomassie Brilliant Blue dye and band densitometry calculated using ImageJ (40) with background subtraction. (C) Quantification of remaining peptide post ProtK treatment in 60 min intervals. Intensities of peptide bands were normalized to the intensity of the untreated peptide (T0) and converted to a percentage relative to T0. […] Error bars are reporting standard error. Data represent the average of 3 independent experiments.
# Proteinase K (ProtK) = molecular target: T2, Proteinase K (ProtK) (Parengyodontium album, UniProt P06873); assay: in vitro; format: in vitro ADME
# T2 construct: purchased Bioshop
# T2 sequence (P06873 106-384): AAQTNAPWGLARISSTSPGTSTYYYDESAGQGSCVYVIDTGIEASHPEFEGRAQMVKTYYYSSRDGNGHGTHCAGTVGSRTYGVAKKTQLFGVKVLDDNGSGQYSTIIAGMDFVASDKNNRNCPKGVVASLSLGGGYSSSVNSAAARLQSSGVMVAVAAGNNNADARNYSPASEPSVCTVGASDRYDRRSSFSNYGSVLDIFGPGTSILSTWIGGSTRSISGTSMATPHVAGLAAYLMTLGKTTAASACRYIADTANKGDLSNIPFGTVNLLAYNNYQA
# Method: (§1) Stocks of 20 μM peptide in 200 μL total volume (10 mM Tris-base, 10 mM NaCl, pH 7.4) were supplemented with 5 μM CaCl2) and 30 uL removed for the untreated T0 sample. Proteinase K (ProtK, Bioshop) was then added to a final concentration of 100 μg/mL. Samples were incubated at 37° C. and 30 μL removed after each time point and protease activity blocked by the addition of 10 mM PMSF (200 mM stock dissolved in isopropanol). Protease inactivated samples were frozen at −20° C. until further use. Digestions were repeated three times. Frozen samples were supplemented with 8 μL sample loading buffer (4× NuPAGE, ThermoFisher Scientific), boiled ([…]) for 10 minutes, and centrifuged (12 000 rpm, 10 min) prior to loading the gel (12% NuPAGE Bis-Tris (ThermoFisher Scientific) with MES running buffer). Gels were run at 200 V for […] and stained using Coomassie Brilliant Blue dye. Densitometry of bands was determined using ImageJ software (40) with back ground subtraction. All samples were normalized to their respective untreated sample (T0).
# in vitro = in vitro ADME; settings: isolated enzyme proteinase k, pH 7.4
# Method: as §1
# RLN receptor (RXFP1) = molecular target: T3, RLN receptor (RXFP1) (Homo sapiens, UniProt Q9HBX9); assay: CRE-luciferase reporter assay in HEK293 cells stably expressing RXFP1; format: cell-based
# T3 construct: expressed in transfected cells; host or cells: HEK293
# T3 sequence (Q9HBX9 1-757): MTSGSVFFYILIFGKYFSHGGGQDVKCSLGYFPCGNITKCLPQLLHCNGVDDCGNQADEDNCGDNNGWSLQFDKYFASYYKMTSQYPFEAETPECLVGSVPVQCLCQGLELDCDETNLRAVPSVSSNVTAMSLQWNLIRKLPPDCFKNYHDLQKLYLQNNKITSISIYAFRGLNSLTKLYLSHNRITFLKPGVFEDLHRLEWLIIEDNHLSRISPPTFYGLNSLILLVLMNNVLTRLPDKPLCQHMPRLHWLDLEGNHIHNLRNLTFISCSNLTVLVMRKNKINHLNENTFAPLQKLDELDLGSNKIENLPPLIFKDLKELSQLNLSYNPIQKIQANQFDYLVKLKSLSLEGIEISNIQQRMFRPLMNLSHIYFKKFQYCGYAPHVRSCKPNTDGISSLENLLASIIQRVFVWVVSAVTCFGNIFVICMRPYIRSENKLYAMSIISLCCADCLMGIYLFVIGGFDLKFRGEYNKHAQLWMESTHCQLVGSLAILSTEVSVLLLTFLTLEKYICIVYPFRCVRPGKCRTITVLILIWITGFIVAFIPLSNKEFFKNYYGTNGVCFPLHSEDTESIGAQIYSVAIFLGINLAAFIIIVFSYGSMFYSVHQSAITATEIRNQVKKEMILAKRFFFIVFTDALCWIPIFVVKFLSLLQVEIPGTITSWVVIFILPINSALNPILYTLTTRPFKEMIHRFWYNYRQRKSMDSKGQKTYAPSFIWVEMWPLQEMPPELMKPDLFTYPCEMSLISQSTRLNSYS
# Method: This activates protein kinase A (PKA) to phosphorylate and activate cAMP response element-binding protein (CREB). […] All of the (L)-RLN was degraded in about 1 hr, while about 90% of the (D)-analog was still detectable at 6 hours.
# FIG. 15 is a series of charts and experiments showing the activity and protease degradation of (D)-RLN_1 (non-mutated) and (D)-RLN_2 (mutated) polypeptides. (A) HEK293 cells stably expressing RXFP1 and CRE-luciferase were stimulated with different concentrations of (D)-RLN_1 and (D)-RLN_2 peptides. Luciferase activity was measured. The experiments were performed in triplicate. (B) Sample gel images of (L) and (D)-RLN peptides treated with Proteinase K (ProtK) over 5 hours. Gels were stained with Coomassie Brilliant Blue dye and band densitometry calculated using ImageJ (40) with background subtraction. (C) Quantification of remaining peptide post ProtK treatment in 60 min intervals. Intensities of peptide bands were normalized to the intensity of the untreated peptide (T0) and converted to a percentage relative to T0. […] Error bars are reporting standard error. Data represent the average of 3 independent experiments.
Compound,"activation of GLP2R, potency and efficacy (in words) (GLP2R)",degradation by ProtK (in words) (Proteinase K (ProtK)),"remaining at 6 h, 20 µM (in vitro)","activation of RLN receptor, potency and efficacy (in words) (RLN receptor (RXFP1))","remaining at 6 h, 20 µM (Proteinase K (ProtK); isolated enzyme proteinase k, pH 7.4, after 6 hours exposure to ProtK, relative to T0, read-out: peptide still detectable)"
CC[C@@H](C)[C@@H](NC(=O)[C@@H](C)NC(=O)[C@@H](C)NC(=O)[C@H](NC(=O)[C@@H](C)NC(=O)[C@@H](Cc1ccccc1)NC(=O)[C@@H](Cc1c[nH]c2ccccc12)NC(=O)[C@@H](Cc1ccccc1)NC(=O)CNC(=O)[C@H](NC(=O)[C@@H](CCCNC(=N)N)NC(=O)[C@@H](CC(=O)O)NC(=O)[C@H](NC(=O)[C@@H](CCCCN)NC(=O)[C@H](NC(=O)[C@H](NC(=O)[C@H](N)CC(=O)O)[C@H](C)O)[C@H](C)CC)[C@H](C)O)[C@H](C)CC)C(C)C)C(=O)N[C@H](CC(C)C)C(=O)N[C@@H](C(=O)N[C@H](CC(C)C)C(=O)N[C@H](CC(C)C)C(=O)N[C@H](CCCCN)C(=O)N[C@H](CCSC)C(=O)N[C@H](CCSC)C(=O)N[C@H](CCC(=O)O)C(=O)N[C@H](CCC(=O)O)C(=O)N[C@H](Cc1ccccc1)C(=O)N[C@@H](C(=O)NCC(=O)N[C@H](CC(=O)O)C(=O)N[C@H](C)C(=O)N[C@H](Cc1c[nH]cn1)C(=O)O)C(C)C)C(C)C [(D)-GLP2] (H-[dD][dT][dI][dK][dT][dD][dR][dI]G[dF][dW][dF][dA][dV][dA][dA][dI][dL][dV][dL][dL][dK][dM][dM][dE][dE][dF][dV]G[dD][dA][dH]-OH; N-terminus and C-terminus assumed),potency and efficacy comparable to (L)-GLP-2,persists after 5 hours,> 90%,,
CC[C@@H](C)[C@@H](NC(=O)[C@@H](CC(C)C)NC(=O)[C@@H](CC(C)C)NC(=O)[C@@H](CCC(=O)O)NC(=O)[C@@H](CCCCN)NC(=O)[C@@H](CO)NC(=O)[C@H](NC(=O)[C@@H](Cc1c[nH]c2ccccc12)NC(=O)[C@H](N)CO)[C@H](C)O)C(=O)N[C@H](CCC(=O)O)C(=O)N[C@@H](C(=O)N[C@@H](C(=O)N[C@H](CC(N)=O)C(=O)N[C@H](CC(=O)O)C(=O)N[C@H](CC(C)C)C(=O)N[C@H](CCC(N)=O)C(=O)N[C@H](CCCCN)C(=O)N[C@H](CCCNC(=N)N)C(=O)NCC(=O)N[C@H](CS)C(=O)N[C@H](CC(C)C)C(=O)N[C@H](CCCCN)C(=O)N[C@@H](C(=O)N[C@@H](C(=O)N[C@H](CCC(=O)O)C(=O)N[C@H](CCC(=O)O)C(=O)N[C@H](CCSC)C(=O)N[C@H](Cc1c[nH]c2ccccc12)C(=O)N[C@H](CO)C(=O)O)C(C)C)[C@H](C)CC)[C@H](C)CC)[C@H](C)CC [(D)-RLN] (H-[dS][dW][dT][dS][dK][dE][dL][dL][dI][dE][dI][dI][dN][dD][dL][dQ][dK][dR]G[dC][dL][dK][dI][dV][dE][dE][dM][dW][dS]-OH; N-terminus and C-terminus assumed),,persists after 5 hours,,potency and efficacy comparable to (L)-RLN,~90%
